Laboratory results published in PubChem BioAssay (NCI).
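Cultured in 96-well plates, cells were exposed to test compound for 48 hours across five concentrations. Abbreviation: GI50, concentration required for 50% inhibition of growth. The concentration for full growth arrest is given as TGI.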

Legend:
Test in all cases: NCI tumour cell line growth inhibition, 48 h
[1] = tested on: CAKI-1 renal
[2] = tested on: SK-MEL-28 melanoma
[3] = tested on: RXF 393 renal
[4] = tested on: RPMI-8226 leukemia
[5] = tested on: HCT-15 colon
[6] = tested on: HS 578T breast
[7] = tested on: M14 melanoma
[8] = tested on: SW-620 colon
[9] = tested on: EKVX NSCLC
[10] = tested on: T-47D breast
[11] = tested on: SF-268 CNS
[12] = tested on: HOP-62 NSCLC
[13] = tested on: SK-MEL-5 melanoma
[14] = tested on: DU-145 prostate
[15] = tested on: HCC-2998 colon
[16] = tested on: HT29 colon
[17] = tested on: SK-OV-3 ovarian
[18] = tested on: UO-31 renal
[19] = tested on: SNB-19 CNS
[20] = tested on: SN12C renal
[21] = tested on: BT-549 breast
[22] = tested on: MOLT-4 leukemia
[23] = tested on: MDA-MB-435
[24] = tested on: TK-10 renal
[25] = tested on: KM12 colon
[26] = tested on: NCI-H23 lung
[27] = tested on: LOX IMVI melanoma
[28] = tested on: OVCAR-8 ovarian
[29] = tested on: UACC-62 melanoma
[30] = tested on: UACC-257 melanoma
[31] = tested on: HCT-116 colon
[32] = tested on: SNB-75 CNS
[33] = tested on: CCRF-CEM leukemia
[34] = tested on: MALME-3M melanoma
[35] = tested on: HL-60(TB) leukemia
[36] = tested on: HOP-92 NSCLC
[37] = tested on: SF-295 CNS
[38] = tested on: ACHN renal
[39] = tested on: NCI-H522 lung
[40] = tested on: SR leukemia
[41] = tested on: MDA-MB-231 breast
[42] = tested on: U251 CNS
[43] = tested on: NCI/ADR-RES ovarian
[44] = tested on: NCI-H226 lung
[45] = tested on: SF-539 CNS
[46] = tested on: OVCAR-5 ovarian
[47] = tested on: IGROV1 ovarian
[48] = tested on: 786-0 renal
[49] = tested on: MCF7 breast
[50] = tested on: A498 renal
[51] = tested on: K-562 leukemia
[52] = tested on: COLO 205 colon
[53] = tested on: OVCAR-4 ovarian
[54] = tested on: SK-MEL-2 melanoma
[55] = tested on: A549 NSCLC
[56] = tested on: NCI-H460 lung
[57] = tested on: PC-3 prostate
[58] = tested on: OVCAR-3 ovarian

In the case of `Cc1ccccc1NC(=O)Nc1nc2ccc([N+](=O)[O-])cc2s1`, the GI50 [1] is reported as 1.68 µM, the TGI [1] is reported as 4.02 µM and the GI50 [2] is reported as 2.26 µM. It also gave a TGI [2] of 6.29 µM, a GI50 [3] of 1.89 µM and a TGI [3] of 4.29 µM. It also gave a GI50 [4] of 1.43 µM, a TGI [4] of 3.76 µM and a GI50 [5] of 2.12 µM. The TGI [5] was 5.48 µM, the GI50 [6] was 2.4 µM and the TGI [6] was 6.64 µM. The GI50 [7] was 2.42 µM, the TGI [7] was 5.85 µM and the GI50 [8] was 2.54 µM. It also gave a TGI [8] of 7.86 µM, a GI50 [9] of 2.16 µM and a TGI [9] of 6.01 µM. It also gave a GI50 [10] of 2.22 µM, a TGI [10] of 6.28 µM and a GI50 [11] of 3.06 µM. It also gave a TGI [11] of 9.95 µM, a GI50 [12] of 2.49 µM and a TGI [12] of 7.01 µM. It also gave a GI50 [13] of 1.59 µM, a TGI [13] of 3.19 µM and a GI50 [14] of 3.23 µM. The TGI [14] was 11.2 µM, the GI50 [15] was 2.29 µM and the TGI [15] was 5.38 µM. For the same molecule, the GI50 [16] was 2.03 µM, the TGI [16] was 4.96 µM and the GI50 [17] was 2.05 µM. It also gave a TGI [17] of 5.43 µM, a GI50 [18] of 2.02 µM and a TGI [18] of 6.33 µM. The GI50 [19] was 2.72 µM, the TGI [19] was 7.77 µM and the GI50 [20] was 2.38 µM. The TGI [20] was 7.12 µM, the GI50 [21] was 2.18 µM and the TGI [21] was 4.53 µM. For the same molecule, the GI50 [22] was 1.76 µM, the TGI [22] was 4.02 µM and the GI50 [23] was 2.1 µM. For the same molecule, the TGI [23] was 5.71 µM, the GI50 [24] was 2.9 µM and the TGI [24] was 7.11 µM. The GI50 [25] was 2.49 µM, the TGI [25] was 8.57 µM and the GI50 [26] was 1.79 µM. It also gave a TGI [26] of 4.7 µM, a GI50 [27] of 1.83 µM and a TGI [27] of 3.53 µM. For the same molecule, the GI50 [28] was 2.81 µM, the TGI [28] was 9.9 µM and the GI50 [29] was 2.46 µM. For the same molecule, the TGI [29] was 10.6 µM, the GI50 [30] was 1.89 µM and the TGI [30] was 5.12 µM. The GI50 [31] was 2.24 µM, the TGI [31] was 5.21 µM and the GI50 [32] was 1.77 µM. For the same molecule, the TGI [32] was 4.78 µM, the GI50 [33] was 1.76 µM and the TGI [33] was 5.28 µM. For the same molecule, the GI50 [34] was 2.1 µM, the TGI [34] was 4.99 µM and the GI50 [35] was 1.79 µM. It also gave a TGI [35] of 3.87 µM, a GI50 [36] of 1.59 µM and a TGI [36] of 4.19 µM. The GI50 [37] was 1.72 µM, the TGI [37] was 3.61 µM and the GI50 [38] was 1.88 µM. The TGI [38] was 4.53 µM, the GI50 [39] was 1.47 µM and the TGI [39] was 4.24 µM. The GI50 [40] was 1.73 µM, the TGI [40] was 4.11 µM and the GI50 [41] was 2.74 µM. For the same molecule, the TGI [41] was 8.94 µM, the GI50 [42] was 1.77 µM and the TGI [42] was 3.67 µM. For the same molecule, the GI50 [43] was 2.12 µM, the TGI [43] was 5.03 µM and the GI50 [44] was 2.29 µM. The TGI [44] was 6.21 µM, the GI50 [45] was 2.03 µM and the TGI [45] was 4.43 µM. The GI50 [46] was 2.98 µM, the TGI [46] was 11.3 µM and the GI50 [47] was 3.38 µM. The TGI [47] was 13.4 µM, the GI50 [48] was 2.7 µM and the TGI [48] was 8.41 µM. It also gave a GI50 [49] of 2.36 µM, a TGI [49] of 6.69 µM and a GI50 [50] of 1.89 µM. It also gave a TGI [50] of 4.41 µM, a GI50 [51] of 1.53 µM and a TGI [51] of 4.76 µM. It also gave a GI50 [52] of 1.61 µM, a TGI [52] of 3.16 µM and a GI50 [53] of 2.65 µM. The TGI [53] was 9.13 µM, the GI50 [54] was 1.98 µM and the TGI [54] was 4.49 µM. For the same molecule, the GI50 [55] was 2.17 µM, the TGI [55] was 5.8 µM and the GI50 [56] was 2.31 µM. For the same molecule, the TGI [56] was 6.24 µM, the GI50 [57] was 1.78 µM and the TGI [57] was 4.23 µM. The GI50 [58] was 1.84 µM and the TGI [58] was 4.33 µM.
Work on `O=C(NCc1ncc[nH]1)c1ccc(-c2nc3ccc4[nH]ncc4c3c3c2CCCC3)cc1` yielded a GI50 [1] of 1.08 µM, a TGI [1] of 4.8 µM and a GI50 [2] of 1.19 µM. The TGI [2] was 4.6 µM, the GI50 [3] was 0.603 µM and the TGI [3] was 2.76 µM. It also gave a GI50 [4] of 6.15 µM, a TGI [4] of 23.4 µM and a GI50 [5] of 6.28 µM. It also gave a TGI [5] of over 50 µM, a GI50 [6] of 1.25 µM and a TGI [6] of 7.65 µM. The GI50 [7] was 1.43 µM, the TGI [7] was 7.44 µM and the GI50 [8] was 1.36 µM. For the same molecule, the TGI [8] was over 50 µM, the GI50 [9] was 2.86 µM and the TGI [9] was 24.2 µM. It also gave a GI50 [10] of 1.18 µM, a TGI [10] of 6.13 µM and a GI50 [11] of 1.33 µM. It also gave a TGI [11] of 8.88 µM, a GI50 [12] of 1.5 µM and a TGI [12] of 9.57 µM. For the same molecule, the GI50 [13] was 1.93 µM, the TGI [13] was 7.51 µM and the GI50 [14] was 2.17 µM. The TGI [14] was over 50 µM, the GI50 [15] was 1.94 µM and the TGI [15] was 8.73 µM. For the same molecule, the GI50 [16] was 2.66 µM, the TGI [16] was over 50 µM and the GI50 [17] was 0.707 µM. For the same molecule, the TGI [17] was 3.3 µM, the GI50 [18] was 7.57 µM and the TGI [18] was 22.6 µM. The GI50 [19] was 1.85 µM, the TGI [19] was 38.1 µM and the GI50 [20] was 1.69 µM. The TGI [20] was 10.6 µM, the GI50 [21] was 0.957 µM and the TGI [21] was 5.48 µM. For the same molecule, the GI50 [22] was 1.51 µM, the TGI [22] was 16.8 µM and the GI50 [23] was 1.66 µM. The TGI [23] was 7.05 µM, the GI50 [24] was 1.66 µM and the TGI [24] was over 50 µM. The GI50 [25] was 1.61 µM, the TGI [25] was 9.87 µM and the GI50 [26] was 1.82 µM. For the same molecule, the TGI [26] was 8.21 µM, the GI50 [27] was 1.46 µM and the TGI [27] was 6.73 µM. For the same molecule, the GI50 [28] was 1.81 µM, the TGI [28] was 17.3 µM and the GI50 [29] was 1.38 µM. It also gave a TGI [29] of 6.47 µM, a GI50 [30] of 3.61 µM and a TGI [30] of 18.8 µM. For the same molecule, the GI50 [31] was 0.58 µM, the TGI [31] was over 50 µM and the GI50 [32] was 1.61 µM. The TGI [32] was 5.2 µM, the GI50 [33] was 1.29 µM and the TGI [33] was over 50 µM. For the same molecule, the GI50 [34] was 1.31 µM, the TGI [34] was 3.67 µM and the GI50 [35] was 1.64 µM. It also gave a TGI [35] of 8.98 µM, a GI50 [37] of 3 µM and a TGI [37] of 14.9 µM. For the same molecule, the GI50 [38] was 1.6 µM, the TGI [38] was over 50 µM and the GI50 [39] was 0.869 µM. For the same molecule, the TGI [39] was 2.85 µM, the GI50 [40] was 0.549 µM and the TGI [40] was 27.7 µM. For the same molecule, the GI50 [41] was 1.84 µM, the TGI [41] was 10.9 µM and the GI50 [42] was 1.68 µM. The TGI [42] was 11.6 µM, the GI50 [43] was over 50 µM and the TGI [43] was over 50 µM. For the same molecule, the GI50 [44] was 1.4 µM, the TGI [44] was 17.3 µM and the GI50 [45] was 1.21 µM. It also gave a TGI [45] of 5.85 µM, a GI50 [46] of 9.18 µM and a TGI [46] of over 50 µM. The GI50 [47] was 0.818 µM, the TGI [47] was 7.64 µM and the GI50 [48] was 1.97 µM. The TGI [48] was 12.1 µM, the GI50 [49] was 1.17 µM and the TGI [49] was 6.76 µM. The GI50 [50] was 0.958 µM, the TGI [50] was 4.38 µM and the GI50 [51] was 2.02 µM. It also gave a TGI [51] of over 50 µM, a GI50 [52] of 1.12 µM and a TGI [52] of 3.44 µM. It also gave a GI50 [53] of 3.19 µM, a TGI [53] of 19.7 µM and a GI50 [54] of 1.1 µM. It also gave a TGI [54] of 2.87 µM, a GI50 [55] of 8.04 µM and a TGI [55] of over 50 µM. It also gave a GI50 [56] of 1.94 µM, a TGI [56] of 7.83 µM and a GI50 [57] of 1.81 µM. For the same molecule, the TGI [57] was 32 µM.
